Assays:
[1] = system: HCV Replicon (HCV IRES driven luciferase reporter in Huh-Luc-Neo cells); assay: HCV Replicon Luciferase Assay; type: cell-based; conditions: Hepatitis C virus, 48 h, no unit in table, hit threshold in μM
Procedure: (§1) The identification of inhibitors of HCV replication and/or proliferation has been facilitated by the development of a cell based system to study HCV replication and assay for HCV inhibitors. Inhibition of HCV replication may be performed using the HCV Replicon Assay developed in the laboratories of Bartenschlager (Lohman et al, Science 285, 110-113, 1999) and Rice (Blight et al, Science 290, 1972-1974, 2000). The assay is performed using the Huh-Luc-Neo cell line (Lohman et al, Science 285, 110-113, 1999). Huh-Luc-Neo cells are a human hepatoma cell line (Huh-7) stably expressing a bi-cistronic subgenomic replicon containing the HCV IRES in which the structural proteins of HCV had been deleted and replaced by a construct containing sequences coding for the firefly luciferase reporter gene, the neomycin selectable marker and the EMCV IRES to direct expression of a truncated HCV genome expressing the […] NS3, NS4A, NS4B, NS5A, and NS5B. HCV targets through which inhibitors could act to inhibit replication include the NS3 protease, the helicase/ATPase, NS5A, the NS5B- RNA dependent RNA polymerase, and the HCV IRES.
(§2) Expression of HCV IRES driven luciferase reporter activity and HCV RNA is measured to obtain indirect and direct measures of replication of HCV RNA respectively. Inhibitors of HCV replication and/or proliferation are determined by initially identifying molecules that inhibit expression of the HCV IRES driven luciferase reporter in this HCV Replicon Luciferase Assay. Cell viability assays and control cell based luciferase assays are then run on hits identified in the HCV Replicon Luciferase Assay to eliminate cytoxic compounds and non-specific compounds which act by inhibiting the luciferase enzyme.
(§3) Day 0 Cell Seeding and Compound Treatment: Huh-Luc-Neo Cells are seeded at 25,000/well in an opaque-walled 96 plate with Growth Medium (DMEM phenol red free+PS+2 mM glutamine; 100 μl/well). The compounds to be tested are added to the experimental wells (10 μl/well at 10× assay concentration) and the cells are then incubated (5% CO2, 37° C.) for 48 h.
(§4) Day 2 Reagent Preparation and Luciferase Assay: The Bright-Glo Luciferase Assay Buffer (Promega) is thawed and equilibrated to room temperature prior to use. The lyophilized Bright-Glo Luciferase Assay Substrate is equilibrated to room temperature prior to use. 10 ml of Bright-Glo Luciferase Assay Buffer is transferred to 1 vial of Bright-Glo Luciferase Assay Substrate bottle and mixed by gently with a Vortex. 100 ul of Bright-Glo Luciferase Assay reagent (Bright-Glo Luciferase Assay Buffer+Bright-Glo Luciferase Assay Substrate Mixture) is added to each well. The well contents are mixed for 5 min. on an orbital shaker at room temperature to induce cell lysis and the luminescence is then measured using a luminometer. The data is analyzed and IC50s are determined using GraphPad Prism 4 software. Hits validated in the Replicon Luciferase assay have IC50s<8.0 μM and show<30% inhibition of Cell Viability at a compound concentration of 100 μM (Cell Titer Glow Assay, cell viability assay conditions identical to HCV Replicon Luciferase Assay conditions).

[2] = system: HCV Replicon (HCV RNA in Huh-Luc-Neo cells); assay: HCV Replicon RNA Assay (Taqman); type: cell-based, Hepatitis C virus; conditions: compound added day 0 and day 1, no unit in table, hit threshold in μM; for IC50: Hepatitis C virus
Procedure: as §1, §2
as §3, with “Day 0,” for “Day 0”, “37° C.).” for “37° C.) for 48 h.”
Day 1, Media Change and Compound Treatment: 24 hours after the initial compound treatment the cell culture media is aspirated from the wells and fresh Growth Medium is added (DMEM phenol red free+PS+2 mM glutamine; 100 μl/well). The compounds to be tested are then added to the appropriate experimental wells (10 μl/well at 10 × assay concentration) and the cells are then incubated (5% CO2, 37° C.) for an additional 24 hrs.
Day 2, RNA Isolation and cDNA Synthesis: The cells are washed with 1× Phosphate Buffered Saline (PBS) once.
(§5) Day 3, Quantitative PCR Based Measurement of HCV RNA (Taqman Assay): Quantitative PCR analysis to measure HCV RNA expression from cDNA synthesized on Day 2 is performed using the ABI 9700 HT Sequence Detection System (Applied Biosystems) as previously described (Lohman et al, Science 285, 110-113, 1999). The data is analyzed and IC50s are determined using GraphPad Prism 4 software. Hits validated in the Replicon RNA Assay have IC50s<8.0 μM and show <30% inhibition of Cell Viability at a compound concentration of 50 μM (Cell Titer Glow Assay, cell viability assay conditions identical to HCV Replicon RNA Assay conditions).

[3] = system: Huh-Luc-Neo cells; assay: CellTiter-Glo Cell Viability Assay; type: cell-based, human; conditions: for Toxicity % Inhibition at 50 uM (2 doses): inhibition of cell viability at 50 uM, conditions as in Replicon RNA Assay; for Toxicity % Inhibition at 100 um (1 dose): inhibition of cell viability at 100 um, conditions as in Replicon Luciferase Assay (48 h)
Procedure: as §4, §5
as §3, with “Day 0,” for “Day 0”, “100 ul/well).” for “100 μl/well).”, “tested for inhibition of cell viability” for “tested”
Day 2, Reagent Preparation and Assay: The CellTiter-Glo Buffer is thawed and equilibrated to room temperature prior to use. The lyophilized CellTiter-Glo Substrate is equilibrated to room temperature prior to use. 10 ml of CeliTiter-Glo Buffer is transferred to 1 vial of CellTiter-Glo Substrate and mixed by gently with a Vortex. 100 μl of CellTiter-Glo Assay reagent (CellTiter-Glo Buffer+CellTiter-Glo Substrate Mixture) is added to each well. The well contents are mixed for 5 min. on an orbital shaker at room temperature to induce cell lysis and the luminescence is then measured using a luminometer.

| Compound | IC50 [1] | IC50 [2] | Toxicity % Inhibition at 50 uM (2 doses) [3] | Toxicity % Inhibition at 100 um (1 dose) [3] | TaqMan IC50 [2] |
| --- | --- | --- | --- | --- | --- |
| O=c1oc2ccccc2c(OCc2cccc(C(F)(F)F)c2)c1Cc1cccc(C(F)(F)F)c1 [VQ_31711] | 5.16 µM | 0.12 µM | 4.3% | 4.6% |  |
| O=c1oc2ccccc2c(OCc2ccc(C(F)(F)F)cc2)c1Cc1ccc(C(F)(F)F)cc1 [VQ_31712] | 4.92 µM | > 30 µM | 10.0% | 16.6% |  |
| Cc1ccc(COc2c(Cc3ccc(C)cc3)c(=O)oc3ccccc23)cc1 [VQ_31715] | 2.8 µM | 0.55 µM | 13.4% | 53.4% |  |
| COc1ccc2c(OCc3cccc(C)c3)c(Cc3cccc(C)c3)c(=O)oc2c1 [VQ_31729] | 3.53 µM | 0.36 µM | 5.1% | 3.0% |  |
| COc1ccc2c(OCc3cccc(Cl)c3)c(Cc3cccc(Cl)c3)c(=O)oc2c1 [VQ_31734] | 3.84 µM | 0.67 µM | 0.7% | 4.3% |  |
| COc1ccc2c(OCc3ccccc3C)c(Cc3ccccc3C)c(=O)oc2c1 [VQ_31738] | 5.44 µM | 0.21 µM | 6.1% | 23.6% |  |
| COc1ccc2c(OCc3ccc(F)cc3F)c(Cc3ccc(F)cc3F)c(=O)oc2c1 [VQ_31744] | 4.5 µM | 0.28 µM | 7.0% | 10.9% |  |
| COc1ccc2c(OCc3ccc(F)c(F)c3)c(Cc3ccc(F)c(F)c3)c(=O)oc2c1 [VQ_31748] | 5.38 µM | 1.97 µM | 4.9% | 10.0% |  |
| COc1ccc2c(OCc3cccc(C(F)(F)F)c3)c(Cc3cccc(C(F)(F)F)c3)c(=O)oc2c1 [VQ_31754] | 5.45 µM | 5.35 µM | 1.9% | 2.5% |  |
| COc1ccc2c(OCc3ccc(C(F)(F)F)cc3)c(Cc3ccc(C(F)(F)F)cc3)c(=O)oc2c1 [VQ_31758] | 6.16 µM | 5.24 µM | 2.6% | 14.7% |  |
| COc1ccc2c(OCc3ccc(C)cc3)c(Cc3ccc(C)cc3)c(=O)oc2c1 [VQ_31763] | 8.29 µM | 0.43 µM | 6.5% | 4.6% |  |
| Cc1cc2oc(=O)c(Cc3ccc(F)cc3F)c(OCc3ccc(F)cc3F)c2cc1C [VQ_32806] | 5.57 µM | 1.4 µM | 8.3% | 16.5% |  |
| Cc1ccc(COc2c(Cc3ccc(C)cc3)c(=O)n(C)c3ccccc23)cc1 [VQ_32833] | 2.89 µM | 0.58 µM | 20.7% | 34.6% |  |
| Cc1ccc(COc2c(Cc3ccc(C)cc3)c(=O)n(Cc3ccc(C)cc3)c3ccccc23)cc1 [VQ_33645] | 2.33 µM | > 30 µM | 17.2% | 21.5% |  |
| Cn1c(=O)c(Cc2ccc(Cl)c(Cl)c2)c(OCc2ccc(Cl)c(Cl)c2)c2ccccc21 [VQ_34453] | 8.5 µM | 1.97 µM | 12.2% | 24.6% |  |
| O=c1[nH]c2ccccc2c(OCc2ccc(F)cc2)c1Cc1ccc(F)cc1 [VQ_35018] | 1 µM |  | 12.3% | 10.0% | Inactive |
| Cc1cccc(COc2c(Cc3cccc(C)c3)c(=O)[nH]c3ccccc23)c1 [VQ_35027] | 2.1 µM |  | 12.5% | 4.6% | Inactive |
| COc1ccc(-c2c(OCc3cccc(C(F)(F)F)c3)c3ccccc3oc2=O)cc1 [VQ_36312] | 3.06 µM | 0.89 µM | 40.8% | 5.0% |  |
| COC(=O)CNCc1c(Nc2ccc(C)cc2)c2ccccc2oc1=O [VQ_36341] | 0.28 µM | 0.4 µM | 31.2% | 14.6% |  |
| Cc1ccc(Nc2c(CNc3ncccn3)c(=O)oc3ccccc23)cc1 [VQ_36343] | 0.13 µM | 0.16 µM | 37.9% | 21.1% |  |
| COc1ccc(Nc2c(/C=N/C3CCCCC3)c(=O)oc3ccccc23)cc1 [VQ_36467] | 51.1 µM | 0.46 µM | 13.9% | 22.8% |  |
| CCCCCC/N=C/c1c(Nc2ccc(OC)cc2)c2ccccc2oc1=O [VQ_36468] | 43.3 µM | 0.71 µM | 16.3% | 40.7% |  |
| COc1ccc(Nc2c(/C=N/c3nc4ccccc4s3)c(=O)oc3ccccc23)cc1 [VQ_36469] | 53.6 µM | 4.16 µM | 3.3% | 14.7% |  |
| COc1ccc(Nc2c(/C=N/c3ncccn3)c(=O)oc3ccccc23)cc1 [VQ_36470] | 59.9 µM | 4.08 µM | −2.7% | 12.5% |  |
| COc1ccc(Nc2c(/C=N/c3ccc(Cl)cc3)c(=O)oc3ccccc23)cc1 [VQ_36471] | 0.04 µM | 1.78 µM | 15.2% | 9.8% |  |

Source: patent US8048889B2, “3,4-disubstituted coumarin and quinolone compounds” (XTL Biopharmaceuticals Ltd., priority 2005, dated 2011)
